The structures appear in SMILES notation. Where two headings read alike, the source gives them in different places.

Series [1] concerns the target T1, AR (Homo sapiens, UniProt P10275).
T1 sequence (P10275 1-920): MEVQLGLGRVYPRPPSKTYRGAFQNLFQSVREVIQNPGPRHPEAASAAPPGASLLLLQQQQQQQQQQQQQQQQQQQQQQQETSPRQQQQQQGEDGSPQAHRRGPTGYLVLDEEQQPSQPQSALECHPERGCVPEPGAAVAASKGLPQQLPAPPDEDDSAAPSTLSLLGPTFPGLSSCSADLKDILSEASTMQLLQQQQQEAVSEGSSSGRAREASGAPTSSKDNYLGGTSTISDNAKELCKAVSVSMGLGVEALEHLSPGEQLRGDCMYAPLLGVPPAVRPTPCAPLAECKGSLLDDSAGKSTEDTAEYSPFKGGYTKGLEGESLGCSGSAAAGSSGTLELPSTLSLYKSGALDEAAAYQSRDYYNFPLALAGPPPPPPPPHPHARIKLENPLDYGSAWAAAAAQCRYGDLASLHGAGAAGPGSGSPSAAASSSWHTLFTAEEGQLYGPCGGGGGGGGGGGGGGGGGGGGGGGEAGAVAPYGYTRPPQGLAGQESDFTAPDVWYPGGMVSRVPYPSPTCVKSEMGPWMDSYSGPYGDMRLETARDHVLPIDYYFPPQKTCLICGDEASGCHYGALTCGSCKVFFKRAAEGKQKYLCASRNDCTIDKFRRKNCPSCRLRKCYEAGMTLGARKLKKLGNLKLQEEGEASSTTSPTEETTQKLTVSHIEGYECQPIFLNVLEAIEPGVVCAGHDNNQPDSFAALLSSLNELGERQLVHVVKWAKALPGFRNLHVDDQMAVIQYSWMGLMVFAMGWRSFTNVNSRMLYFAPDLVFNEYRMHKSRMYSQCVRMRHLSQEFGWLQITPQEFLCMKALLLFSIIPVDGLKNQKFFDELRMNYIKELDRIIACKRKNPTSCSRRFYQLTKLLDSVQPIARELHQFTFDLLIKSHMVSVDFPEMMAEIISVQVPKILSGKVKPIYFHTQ
In words: Interaction of non-radioactive iodine compounds with AR. Particulars: compounds containing non-radioactive iodine.

The conditions of series [2]: Permadi et al. 1993; cited from earlier work.
For series [3] the following is noted: Takagi et al. 1991; cited from earlier work.
The test system of series [4] is androgenic alopecia. As to conditions: three male volunteers, 1% solution in ethanol.
The nature of series [5]: Systemic toxicity, repeated i.p. injection in mice. Type of series: in vivo. Particulars: i.p. every 2nd day. How it is done:
Systemic toxicity was orientationally evaluated by i.p. injection every 2nd day in mice. […] For BP-34, the corresponding values were 150 mg/kg bw and 300 mg/kg bw.
The maximum tolerated dose should thus be approximately 300 mg/kg. For BP-34, i.p. injections of 100-300 mg/kg produce no mortalities in mice. […] Therefore, the maximum tolerated dose of BP-34 should be approximately 250 mg/kg.

For series [6] the following is noted: rabbits, 2× daily 0.5 mL of 10% solution in 50/50 PEG 400/EtOH, shaved skin 20 cm^2; HPLC sensitivity 5 nanograms.
The conditions of series [7]: human, serum. On the procedure:
Compounds were tested for stability in human serum at 38° C. They were dissolved in isopropanol/H2O (95:5), mixed with human serum to a concentration of 0.5 mg/mL, and incubated at 38° C. Serum aliquots were extracted with ethyl acetate and analyzed by HPLC.
(Permadi, H.; Lundgren, B.; Andersson, K.; Sundberg, C.; DePierre, J. W. Effects of perfluoro fatty acids on peroxisome proliferation and mitochondrial size in mouse liver: dose and time factors and effect of chain length. Xenobiotica, 91993) Vol. 23, No. 7, pp.761-70).

In series [8] the test system is prostate and seminal vesicles. In words: Weight of prostate and seminal vesicles (secondary sex organs) in rats. Type of series: in vivo.
Experimental: (The dose of 0.1 mg/kg approximates the expected topical daily dose for humans).
For series [9] the following is noted: i.m., 75 mg/kg bw.
Where [10] appears, read: Rabbit, skin 20 cm^2, 100 mg/d, 10 d.

Take `CC1(C)C(=O)N(c2ccc(C#N)c(C(F)(F)F)c2)C(=S)N1C/C=C/I` [BP-305, 4-[3′-trans-(2″-propenyl-3″-iodo)-4′,4′-dimethyl-5′-oxo-2′-thioxo-1-imidazolidinyl]-2-trifluoromethylbenzonitrile]: the “Interaction with AR as compared to controls” value in series [1] is recorded as “shown to interact with AR”.
Turning to `O=C(O)C(F)(F)F` [trifluoroacetic acid], in series [2], the “Toxicity when fed to mice” value is recorded as “no toxicity”.
Take `O=C(O)C(F)(F)C(F)(F)C(F)(F)F` [perfluorobutyric acid]: the “Toxicity” value in [3] is “low toxicity”.
Turning to `CC(O)(CNC(=O)C(F)(F)C(F)(F)C(F)(F)F)C(=O)Nc1ccc([N+](=O)[O-])c(C(F)(F)F)c1` (stereo not shown) [BP-521, 4-nitro-3-trifluoromethyl-N-(2′-hydroxy-2′-methyl-3′-N-(heptafluorobutyramido)propionyl)aniline], in series [4] (0.5 mL twice daily on scalp), the “Effect on incipient androgenic alopecia of the forehead line” value is given as “effectively arrested incipient androgenic alopecia”. Moreover, the “Hair growth” value in series [4] (0.5 mL twice daily, after 8 weeks) is recorded as “induced copious growth of vellum hair”. Further, the “Dose with morbidity but no mortality” value in [5] is 350 mg/kg bw. In series [5] (5 times), the “Dose given without mortality or morbidity” value is listed as 200 mg/kg bw. In addition, the μg/ml blood was 1.9 µg/mL (Rabbit ~3 kg, i.p., 150 mg/kg bw, 0.5 hrs); 1.5 µg/mL (Rabbit ~3 kg, oral, 100 mg/kg bw, 0.5 hrs); 0 µg/mL (Rabbit ~3 kg, skin 20 cm^2, 100 mg/d, 10 d, 0.5 hrs); 3.2 µg/mL (Rabbit, i.p., 150 mg/kg bw, 1.0 hrs); 1.9 µg/mL (Rabbit, i.p., 150 mg/kg bw, 1.5 hrs); 1.5 µg/mL (Rabbit, i.p., 150 mg/kg bw, 2.5 hrs). The same compound displayed a μg/ml blood (Rabbit, i.p., 150 mg/kg bw, 7.0 hrs) of 3.0 µg/mL; a μg/ml blood (Rabbit, i.p., 150 mg/kg bw, 24 hrs) of 2.2 µg/mL; a μg/ml blood (Rabbit, oral, 100 mg/kg bw, 1.0 hrs) of 1.7 µg/mL; a μg/ml blood (Rabbit, oral, 100 mg/kg bw, 1.5 hrs) of 2.6 µg/mL; a μg/ml blood (Rabbit, oral, 100 mg/kg bw, 2.5 hrs) of 1.5 µg/mL; a μg/ml blood (Rabbit, oral, 100 mg/kg bw, 7.0 hrs) of 1.0 µg/mL. Besides, the μg/ml blood by setting is: (Rabbit, oral, 100 mg/kg bw, 24 hrs) 1.0 µg/mL; (Rabbit, skin 20 cm^2, 100 mg/d, 10 d, 1.0 hrs) 0 µg/mL; (Rabbit, skin 20 cm^2, 100 mg/d, 10 d, 1.5 hrs) 0 µg/mL; (Rabbit, skin 20 cm^2, 100 mg/d, 10 d, 2.5 hrs) 0 µg/mL; (Rabbit, skin 20 cm^2, 100 mg/d, 10 d, 7.0 hrs) 0 µg/mL; (Rabbit, skin 20 cm^2, 100 mg/d, 10 d, 24 hrs) 0 µg/mL. For the same compound, the μg/ml blood came out at 0.7 µg/mL in series [9] (Rat ~140 g, 0.5 hrs); 4.7 µg/mL in series [9] (Rat, 1.0 hrs); 2.2 µg/mL in series [9] (Rat, 1.5 hrs); 1.0 µg/mL in series [9] (Rat, 24 hrs). The compound also registered a Cumulative % dose (Rabbit, i.p., 150 mg/kg bw) of 2.8%; a Cumulative % dose (Rabbit, oral, 100 mg/kg bw) of 1.50%; a Cumulative % dose under setting [10] of 0%; a Cumulative % dose in series [9] (Rat) of 2.9%. Further, the “Cumulative mg/total blood volume” value (Rabbit, i.p., 150 mg/kg bw) turned out to be 11.6 µg; the “Cumulative mg/total blood volume” value (Rabbit, oral, 100 mg/kg bw) turned out to be 3.0 µg; the “Cumulative mg/total blood volume” value under setting [10] amounted to 0 µg; the “Cumulative mg/total blood volume” value in series [9] (Rat) came to 2.1 µg. In addition, the “Bioavailability” value (from the subcutaneous, muscle and intraperitoneal spaces) is recorded as “low”. Under “oral test”, the “Peak serum levels as % of the injected dose” value came out at 0.0052%. For the same compound, in series [6], the “Topical absorption” value was “No absorption was found”. Besides, the “Percent of the intact compound remaining in human serum” value in series [7] (6 h) amounted to 97.5%; in series [7] (24 h) it was 90.0%; in series [7] (48 h), 84.0%; in [7] (144 h) it was 60.0%. In addition, the “Reduction of secondary sex organs' weight” value in series [8] (castrated rats supplemented with testosterone propionate, 0.1 mg/kg) is “did not reduce”. For the same compound, the “Reduction of average weight of prostate and seminal vesicles” value in series [8] (intact rats, 10 times subcutaneously 100 mg/kg) is given as “about 46%”.

The values are drawn from patent US6472415B1, “Androgen receptor suppressors in the therapy and diagnosis of prostate cancer, alopecia and other hyper-androgenic syndromes” (priority 1998, dated 2002).
